Experimental data from US20180214428A1, “3-(1H-INDOL-2-YL)-1H-PYRAZOLO[3,4-B]PYRIDINES AND THERAPEUTIC USES THEREOF” (Samumed, LLC, priority 2015, published 2018).

Assays:
IL-6 = IL-6 inhibition in LPS-stimulated THP-1 monocytes (HTRF); assay type: cell-based, human; conditions: Homo sapiens, THP-1 cells; for EC50: 500 ng/mL LPS, 22 h, HTRF IL-6 readout, 10-point dose-response from 10 μM; for inhibition at 10 µM: LPS stimulated, given only where EC50 >10 μM, top concentration 10 μM, read-out: percentage in parentheses beside EC50 >10 (IL-6 inhibition)
Method in brief: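 THP-1 cells serum-reduced (1% FBS, 24 h), then 5000 cells/well preincubated 2 h with compound (10-point 1:3 series from 10 μM, 0.1% DMSO) before 500 ng/mL LPS for 22 h at 37 °C. Secreted IL-6 quantified by HTRF 665/620 ratio; DMSO-normalised duplicates fitted to four-parameter EC50; above 10 μM, % inhibition at 10 μM given.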

[1] = system: primary human fibroblasts derived from IPF patients (LL29 cells); experiment: Inhibition of the fibrotic process: αSMA staining in TGF-β1 treated LL29 fibroblasts; assay type: cell-based; conditions: Homo sapiens, Fibroblast; for EC50: 96 h, TGF-β1 20 ng/mL, 4 days, % αSMA positive cells
Method in brief: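 IPF patient-derived LL29 fibroblasts in 1% FBS medium got compound (11-point, 10 μM to 1.87 nM, 0.1% DMSO) plus TGF-β1 20 ng/mL, 4 days at 37° C. αSMA-positive live cells (SYTOX-excluded) were imaged, normalized to TGF-β1 controls and fitted for EC50; % inhibition at 10 μM given when EC50 >10 μM.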

CC(C)Nc1cncc(-c2cnc3[nH]nc(-c4cc5c(-c6cccnc6)cccc5[nH]4)c3c2)c1 [Compound 81, N-Isopropyl-5-(3-(4-(pyridin-3-yl)-1H-indol-2-yl)-1H-pyrazolo[3,4-b]pyridin-5-yl)pyridin-3-amine]
EC50 (IL-6): 1560 nM
EC50 [1]: 1410 nM

c1cncc(-c2cccc3[nH]c(-c4n[nH]c5ncc(-c6cncc(CN7CCCCC7)c6)cc45)cc23)c1 [Compound 84, 5-(5-(Piperidin-1-ylmethyl)pyridin-3-yl)-3-(4-(pyridin-3-yl)-1H-indol-2-yl)-1H-pyrazolo[3,4-b]pyridine]
EC50 (IL-6): 355 nM
EC50 [1]: 5970 nM

O=C(Nc1cncc(-c2cnc3[nH]nc(-c4cc5c(-c6cccnc6)cccc5[nH]4)c3c2)c1)C1CCC1 [Compound 89, N-(5-(3-(4-(Pyridin-3-yl)-1H-indol-2-yl)-1H-pyrazolo[3,4-b]pyridin-5-yl)pyridin-3-yl)cyclobutanecarboxamide]
EC50 (IL-6): 104 nM
EC50 [1]: 147 nM

Cc1ccncc1-c1cnc2[nH]nc(-c3cc4c(-c5ccncc5)cccc4[nH]3)c2c1 [Compound 99, 5-(4-Methylpyridin-3-yl)-3-(4-(pyridin-4-yl)-1H-indol-2-yl)-1H-pyrazolo[3,4-b]pyridine]
EC50 (IL-6): 62 nM
EC50 [1]: 2610 nM

c1cc(-c2ccncc2)c2cc(-c3n[nH]c4ncc(-c5ccncc5)cc34)[nH]c2c1 [Compound 111, 5-(Pyridin-4-yl)-3-(4-(pyridin-4-yl)-1H-indol-2-yl)-1H-pyrazolo[3,4-b]pyridine]
EC50 (IL-6): 4170 nM
EC50 [1]: 2770 nM

O=C(Nc1cncc(-c2cnc3[nH]nc(-c4cc5c(-c6ccncc6)cccc5[nH]4)c3c2)c1)C1CCCCC1 [Compound 115, N-(5-(3-(4-(Pyridin-4-yl)-1H-indol-2-yl)-1H-pyrazolo[3,4-b]pyridin-5-yl)pyridin-3-yl)cyclohexanecarboxamide]
EC50 (IL-6): 594 nM
EC50 [1]: 4980 nM

c1ccc(CNCc2cncc(-c3cnc4[nH]nc(-c5cc6c(-c7ccncc7)cccc6[nH]5)c4c3)c2)cc1 [Compound 116, N-Benzyl-1-(5-(3-(4-(pyridin-4-yl)-1H-indol-2-yl)-1H-pyrazolo[3,4-b]pyridin-5-yl)pyridin-3-yl)methanamine]
EC50 (IL-6): > 10000 nM
inhibition at 10 µM (IL-6): 41.7%
EC50 [1]: 2530 nM

FC1(F)CCN(Cc2cncc(-c3cnc4[nH]nc(-c5cc6c(-c7ccncc7)cccc6[nH]5)c4c3)c2)C1 [Compound 118, 5-(5-((3,3-Difluoropyrrolidin-1-yl)methyl)pyridin-3-yl)-3-(4-(pyridin-4-yl)-1H-indol-2-yl)-1H-pyrazolo[3,4-b]pyridine]
EC50 (IL-6): 607 nM
EC50 [1]: 760 nM

c1ccc(-c2cnc3[nH]nc(-c4cc5c(-c6ccncc6)cccc5[nH]4)c3c2)nc1 [Compound 120, 5-(Pyridin-2-yl)-3-(4-(pyridin-4-yl)-1H-indol-2-yl)-1H-pyrazolo[3,4-b]pyridine]
EC50 (IL-6): 103 nM
EC50 [1]: 642 nM

Nc1cncc(-c2cnc3[nH]nc(-c4cc5c(-c6ccccn6)cccc5[nH]4)c3c2)c1 [Compound 121, 5-(3-(4-(Pyridin-2-yl)-1H-indol-2-yl)-1H-pyrazolo[3,4-b]pyridin-5-yl) pyridin-3-amine]
EC50 (IL-6): 266 nM
EC50 [1]: 241 nM

CCNCc1cncc(-c2cnc3[nH]nc(-c4cc5c(-c6ccccn6)cccc5[nH]4)c3c2)c1 [Compound 124, N-((5-(3-(4-(Pyridin-2-yl)-1H-indol-2-yl)-1H-pyrazolo[3,4-b]pyridin-5-yl)pyridin-3-yl)methyl)ethanamine]
EC50 (IL-6): 194 nM
EC50 [1]: 1800 nM

O=C(Nc1cncc(-c2cnc3[nH]nc(-c4cc5c(-c6ccccn6)cccc5[nH]4)c3c2)c1)c1ccccc1 [Compound 128, N-(5-(3-(4-(Pyridin-2-yl)-1H-indol-2-yl)-1H-pyrazolo[3,4-b]pyridin-5-yl)pyridin-3-yl)benzamide]
EC50 (IL-6): 9 nM
EC50 [1]: 468 nM

c1ccc(-c2cccc3[nH]c(-c4n[nH]c5ncc(-c6cncc(CN7CCCC7)c6)cc45)cc23)nc1 [Compound 131, 3-(4-(Pyridin-2-yl)-1H-indol-2-yl)-5-(5-(pyrrolidin-1-ylmethyl)pyridin-3-yl)-1H-pyrazolo[3,4-b]pyridine]
EC50 (IL-6): 1120 nM
EC50 [1]: 970 nM

CC(C)(C)CC(=O)Nc1cncc(-c2cnc3[nH]nc(-c4cc5c(-c6ccccn6)cccc5[nH]4)c3c2)c1 [Compound 133, 3,3-Dimethyl-N-(5-(3-(4-(pyridin-2-yl)-1H-indol-2-yl)-1H-pyrazolo[3,4-b]pyridin-5-yl)pyridin-3-yl)butanamide]
EC50 (IL-6): 421 nM
EC50 [1]: 753 nM

CCCCC(=O)Nc1cncc(-c2cnc3[nH]nc(-c4cc5c(-c6ccccn6)cccc5[nH]4)c3c2)c1 [Compound 136, N-(5-(3-(4-(Pyridin-2-yl)-1H-indol-2-yl)-1H-pyrazolo[3,4-b]pyridin-5-yl)pyridin-3-yl)pentanamide]
EC50 (IL-6): 1890 nM
EC50 [1]: 2670 nM

c1ccc(-c2cccc3[nH]c(-c4n[nH]c5ncc(-c6cncnc6)cc45)cc23)nc1 [Compound 143, 3-(4-(Pyridin-2-yl)-1H-indol-2-yl)-5-(pyrimidin-5-yl)-1H-pyrazolo[3,4-b]pyridine]
EC50 (IL-6): > 10000 nM
inhibition at 10 µM (IL-6): 37.6%
EC50 [1]: 4960 nM

CCNCc1cncc(-c2cnc3[nH]nc(-c4cc5c(N6CCCCC6)cccc5[nH]4)c3c2)c1 [Compound 150, N-((5-(3-(4-(Piperidin-1-yl)-1H-indol-2-yl)-1H-pyrazolo[3,4-b]pyridin-5-yl)pyridin-3-yl)methyl)ethanamine]
EC50 (IL-6): 1460 nM
EC50 [1]: 2740 nM

CN(C)c1cncc(-c2cnc3[nH]nc(-c4cc5c(N6CCCCC6)cccc5[nH]4)c3c2)c1 [Compound 151, N,N-Dimethyl-5-(3-(4-(piperidin-1-yl)-1H-indol-2-yl)-1H-pyrazolo[3,4-b]pyridin-5-yl)pyridin-3-amine]
EC50 (IL-6): 5250 nM
EC50 [1]: 1630 nM

O=C(Nc1cncc(-c2cnc3[nH]nc(-c4cc5c(N6CCCCC6)cccc5[nH]4)c3c2)c1)c1ccccc1 [Compound 155, N-(5-(3-(4-(Piperidin-1-yl)-1H-indol-2-yl)-1H-pyrazolo[3,4-b]pyridin-5-yl)pyridin-3-yl)benzamide]
EC50 (IL-6): > 10000 nM
inhibition at 10 µM (IL-6): 21.8%
EC50 [1]: 5170 nM

CCCCC(=O)Nc1cncc(-c2cnc3[nH]nc(-c4cc5c(N6CCCCC6)cccc5[nH]4)c3c2)c1 [Compound 163, N-(5-(3-(4-(Piperidin-1-yl)-1H-indol-2-yl)-1H-pyrazolo[3,4-b]pyridin-5-yl)pyridin-3-yl)pentanamide]
EC50 (IL-6): > 10000 nM
inhibition at 10 µM (IL-6): 43.2%
EC50 [1]: 8110 nM

CC(C)CC(=O)Nc1cncc(-c2cnc3[nH]nc(-c4cc5c(N6CCN(C)CC6)cccc5[nH]4)c3c2)c1 [Compound 202, 3-Methyl-N-(5-(3-(4-(4-methylpiperazin-1-yl)-1H-indol-2-yl)-1H-pyrazolo[3,4-b]pyridin-5-yl)pyridin-3-yl)butanamide]
EC50 (IL-6): > 10000 nM
inhibition at 10 µM (IL-6): 0%
EC50 [1]: 2310 nM

CC(C)C(=O)Nc1cncc(-c2cnc3[nH]nc(-c4cc5c(N6CCN(C)CC6)cccc5[nH]4)c3c2)c1 [Compound 209, N-(5-(3-(4-(4-Methylpiperazin-1-yl)-1H-indol-2-yl)-1H-pyrazolo[3,4-b]pyridin-5-yl)pyridin-3-yl)isobutyramide]
EC50 (IL-6): 1210 nM
EC50 [1]: 5620 nM

CN1CCN(c2cccc3[nH]c(-c4n[nH]c5ncc(-c6cncc(CN7CCCCC7)c6)cc45)cc23)CC1 [Compound 215, 3-(4-(4-Methylpiperazin-1-yl)-1H-indol-2-yl)-5-(5-(piperidin-1-ylmethyl)pyridin-3-yl)-1H-pyrazolo[3,4-b]pyridine]
EC50 (IL-6): 220 nM
EC50 [1]: 1760 nM

CN1CCN(c2cccc3[nH]c(-c4n[nH]c5ncc(-c6ccncc6)cc45)cc23)CC1 [Compound 218, 3-(4-(4-Methylpiperazin-1-yl)-1H-indol-2-yl)-5-(pyridin-4-yl)-1H-pyrazolo[3,4-b]pyridine]
EC50 (IL-6): 106 nM
EC50 [1]: 3810 nM

CN1CCN(c2cccc3[nH]c(-c4n[nH]c5ncc(-c6cncc(NC(=O)C7CCCC7)c6)cc45)cc23)CC1 [Compound 222, N-(5-(3-(4-(4-Methylpiperazin-1-yl)-1H-indol-2-yl)-1H-pyrazolo[3,4-b]pyridin-5-yl)pyridin-3-yl)cyclopentanecarboxamide]
EC50 (IL-6): 98 nM
EC50 [1]: 790 nM

CN1CCN(c2cccc3[nH]c(-c4n[nH]c5ncc(-c6cncnc6)cc45)cc23)CC1 [Compound 227, 3-(4-(4-Methylpiperazin-1-yl)-1H-indol-2-yl)-5-(pyrimidin-5-yl)-1H-pyrazolo[3,4-b]pyridine]
EC50 (IL-6): 3900 nM
EC50 [1]: > 10000 nM
inhibition at 10 µM ([1]; at 10 μM, given for EC50 of >10 μM, TGF-β1, αSMA, read-out: percent inhibition at 10 μM): 47.8%

c1cncc(-c2cnc3[nH]nc(-c4cc5ccccc5[nH]4)c3c2)c1 [Compound 231, 3-(1H-Indol-2-yl)-5-(pyridin-3-yl)-1H-pyrazolo[3,4-b]pyridine]
EC50 (IL-6): 19 nM
EC50 [1]: 8690 nM

c1ccc2[nH]c(-c3n[nH]c4ncc(-c5cncc(CN6CCCC6)c5)cc34)cc2c1 [Compound 240, 3-(1H-Indol-2-yl)-5-(5-(pyrrolidin-1-ylmethyl)pyridin-3-yl)-1H-pyrazolo[3,4-b]pyridine]
EC50 (IL-6): 821 nM
EC50 [1]: 859 nM
